Laboratory results reported in US8748415B2 (priority 2011, dated 2014).

Tested on: recombinant NL4-3 virus (Renilla luciferase in nef, Gag P373S)
Assay: HIV cell culture assay (luciferase activity in MT-2 cells infected with NLRluc recombinant virus)
Type: cell-based
Settings: NL43, MT-2 cells infected 4-5 days with NLRluc recombinant virus
Method in brief: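 MT-2 cells in RPMI/10% FBS were infected with recombinant NL4-3 (NLRluc), produced by 293T transfection and titered in MT-2 by luciferase. Serial inhibitor dilutions were present throughout a 4–5 day infection. Antiviral activity was quantified as Renilla luciferase signal via a modified Dual Luciferase read.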

For `C=C(C)[C@@H]1CC[C@]2(CNC(=O)c3cccc(C(=O)O)c3)CC[C@]3(C)[C@H](CC[C@@H]4[C@@]5(C)CC=C(c6ccc(C(=O)O)cc6)C(C)(C)[C@@H]5CC[C@]43C)[C@@H]12` [Example 143, 3-(((1R,3aS,5aR,5bR,7aR,11aS,11bR,13aR,13bR)-9-(4-carboxyphenyl)-5a,5b,8,8,11a-pentamethyl-1-(prop-1-en-2-yl)-2,3,3a,4,5,5a,5b,6,7,7a,8,11,11a,11b,12,13,13a,13b-octadecahydro-1H-cyclopenta[a]chrysen-3a-yl)methylcarbamoyl)benzoic acid], the EC50 (class symbol) was less than 100 nM.
For `C=C(C)[C@@H]1CC[C@]2(CNCCc3c[nH]cn3)CC[C@]3(C)[C@H](CC[C@@H]4[C@@]5(C)CC=C(c6ccc(C(=O)O)cc6)C(C)(C)[C@@H]5CC[C@]43C)[C@@H]12` [Example 25, 4-((1R,3aS,5aR,5bR,7aR,11aS,11bR,13aR,13bR)-3a-((2-(1H-imidazol-4-yl)ethylamino)methyl)-5a,5b,8,8,11a-pentamethyl-1-(prop-1-en-2-yl)-2,3,3a,4,5,5a,5b,6,7,7a,8,11,11a,11b,12,13,13a,13b-octadecahydro-1H-cyclopenta[a]chrysen-9-yl)benzoic acid], the EC50 (class symbol) was less than 100 nM.
In the case of `C=C(C)[C@@H]1CC[C@]2(CNCC(=O)N3CCN(S(=O)(=O)N(C)C)CC3)CC[C@]3(C)[C@H](CC[C@@H]4[C@@]5(C)CC=C(c6ccc(C(=O)O)cc6)C(C)(C)[C@@H]5CC[C@]43C)[C@@H]12` [Example 113, 4-((1R,3aS,5aR,5bR,7aR,11aS,11bR,13aR,13bR)-3a-((2-(4-(N,N-dimethylsulfamoyl)piperazin-1-yl)-2-oxoethylamino)methyl)-5a,5b,8,8,11a-pentamethyl-1-(prop-1-en-2-yl)-2,3,3a,4,5,5a,5b,6,7,7a,8,11,11a,11b,12,13,13a,13b-octadecahydro-1H-cyclopenta[a]chrysen-9-yl)benzoic acid], the EC50 (class symbol) is reported as less than 100 nM.
With `C=C(C)[C@@H]1CC[C@]2(CNC(=O)OCCCN3CCCC3=O)CC[C@]3(C)[C@H](CC[C@@H]4[C@@]5(C)CC=C(c6ccc(C(=O)O)cc6)C(C)(C)[C@@H]5CC[C@]43C)[C@@H]12` [Example 166, 4-((1R,3aS,5aR,5bR,7aR,11aS,11bR,13aR,13bR)-5a,5b,8,8,11a-pentamethyl-3a-(((3-(2-oxopyrrolidin-1-yl)propoxy)carbonylamino)methyl)-1-(prop-1-en-2-yl)-2,3,3a,4,5,5a,5b,6,7,7a,8,11,11a,11b,12,13,13a,13b-octadecahydro-1H-cyclopenta[a]chrysen-9-yl)benzoic acid] the EC50 (class symbol) was less than 100 nM.
With `C=C(C)[C@@H]1CC[C@]2(CNCCCBr)CC[C@]3(C)[C@H](CC[C@@H]4[C@@]5(C)CC=C(c6ccc(C(=O)O)cc6)C(C)(C)[C@@H]5CC[C@]43C)[C@@H]12` [Example 65, 4-((1R,3aS,5aR,5bR,7aR,11aS,11bR,13aR,13bR)-3a-((3-bromopropylamino)methyl)-5a,5b,8,8,11a-pentamethyl-1-(prop-1-en-2-yl)-2,3,3a,4,5,5a,5b,6,7,7a,8,11,11a,11b,12,13,13a,13b-octadecahydro-1H-cyclopenta[a]chrysen-9-yl)benzoic acid] the EC50 (numeric value) was 1 nM.
For `C=C(C)[C@@H]1CC[C@]2(CNCCN3CCSCC3)CC[C@]3(C)[C@H](CC[C@@H]4[C@@]5(C)CC=C(c6ccc(C(=O)O)cc6)C(C)(C)[C@@H]5CC[C@]43C)[C@@H]12` [Example 86], the EC50 (class symbol) was less than 100 nM.
`C=C(C)[C@@H]1CC[C@]2(CNC(=O)[C@@H]3CCCN3)CC[C@]3(C)[C@H](CC[C@@H]4[C@@]5(C)CC=C(c6ccc(C(=O)O)cc6)C(C)(C)[C@@H]5CC[C@]43C)[C@@H]12` [Example 136, 4-((1R,3aS,5aR,5bR,7aR,11aS,11bR,13aR,13bR)-5a,5b,8,8,11a-pentamethyl-1-(prop-1-en-2-yl)-3a-(((S)-pyrrolidine-2-carboxamido)methyl)-2,3,3a,4,5,5a,5b,6,7,7a,8,11,11a,11b,12,13,13a,13b-octadecahydro-1H-cyclopenta[a]chrysen-9-yl)benzoic acid] gave an EC50 (class symbol) of less than 100 nM.
